Measured values from patent US20170112777A1, “PROTEIN-BASED PARTICLES FOR DRUG DELIVERY” (Dana-Farber Cancer Institute, Inc., priority 2014, published 2017).

System: healthy balb/C mice
Assay: Tolerability of intraperitoneal pirfenidone dose
Assay type: in vivo
Conditions: free drug in 10% ethanol in PBS, 200 mg/kg
Protocol: Pirfenidone was dissolved in a 10% ethanol in PBS solution and administered intraperitoneally to healthy balb/C mice. The intraperitoneal pirfenidone dose was 200 mg/kg. […] However, the same dose was well-tolerated using albumin nanoparticles containing pirfenidone. The nanoparticles were injected twice daily for a total dose of 200 mg/kg per day for 16 days. This example highlights the ability of drug-loaded nanoparticles to slowly release drugs and lower their toxic side effects.

For `Cc1ccc(=O)n(-c2ccccc2)c1` [Pirfenidone, pirfenidone], which Tolerability is on record?
Its Tolerability is “immediate neurological symptoms in the mice as well as death”.
